Laboratory results published in patent US20150140015A1, “METHODS AND PHARMACEUTICAL COMPOSITIONS FOR THE TREATMENT OF PANCREATIC CANCER” (INSERM (Institut National de la Sante et de la Recherche …, priority 2013, published 2015).
“Also recorded” adds a separate entry of the source.

Test system: AsPC-1 cells xenografted in nude mice
Test: Tumorigenicity assay: AsPC-1 cells xenografted in nude mice
Type: in vivo
Details: for decrease of tumor volume: 30-day treatment; for activated caspase-3 immunostaining in xenografted AsPC-1 tumors: orexin-A 1 μmoles/Kg daily i.p., 30 days
Method: FIGS. 6A and B. Effect of daily inoculation of orexin-A on the growth of tumors developed by xenografting human PDCA cells in nude mice. AsPC-1 cells were inoculated in the flank of nude mice at day 0. Mice were injected daily intraperitoneally with 100 μl of orexin-A solutions starting at day 0 (◯) or day 14 (▴) or with 100 μl of PBS ([…]) for controls. A, the daily treatment corresponded to 1 μmoles of orexin-A/Kg. Inset represents the tumor weight measured at the end of the experiment after the mice were sacrificed; B, mice received 0.01, 0.1, 1 or 10 μmoles of orexin-A/kg. After 30 days of treatment, mice were sacrificed and tumor volume and weight were then recorded. The development of tumors was followed by caliper measurement. Data are the means±SE of 6 tumors in each group. *** p<0.01 versus control.
FIG. 7A-F. Indirect immunostaining of activated caspase-3 in xenografted AsPC-1 tumors resected from nude mice. Paraformaldehyde-fixed xenografted AsPC-1 tumors from nude mice treated daily (B, D and F) by intraperitoneal injections with 1 μmoles/Kg orexin-A or not (A, C and E). […] OX1R immunostaining localisation was similar under control and orexin-A treatment conditions.
Control mice received PBS.
After dewaxing, rehydrating tumor paraffin sections, and antigen retrieval by pretreatment with high temperature at pH 9, immunohistochemical procedures were carried out using an automated immunohistochemical stainer according to the manufacturer's guidelines (Bond-Max slide stainer, Menarini, Leica Microsystems). For immunohistochemistry on cell lines, cells in pellets were fixed in formalin, embedded in cell blocks (Shandon Cytoblock; Thermo Scientific; USA) and cut into 3 μm sections. OX1R evaluation was performed in human PDAC, included in TMA, in xenografted tumors and in cell lines (AsPC-1, HPAF-II and HPAF-II/hOX1R). After antigen retrieval, 3 μm cells or tissue sections were incubated for 30 minutes with a polyclonal anti-OX1R antibody (My Bio Source; polyclonal goat; 1/300), rinsed, and then incubated with a biotinylated secondary rabbit anti-goat antibody (Vector BA-500; 1/400). Sections were rinsed and incubated with Streptavidin (TrekAvidin-HRP; Biocare Medical) and DAB ultraview detection kit (Bond Polymer Refine detection; DS9800; Leica Microsystems). Substitution of the primary antibody with PBS was used as a negative control. OX1R immunostaining was evaluated by two investigators (TV and AC) by calculating a score (0-300) obtained by multiplying the intensity (negative, 0; weak, 1; moderate, 2; and strong, 3) by the percentage of stained cells. The pattern of expression (cytoplasmic, membranous, and nuclear) was also recorded, and a mean score was calculated for each tumor. Internal positive controls consisted of normal pancreatic islets while the HEK/hOX1R cell line served as an external positive control. Specificity of the immunostaining was verified by incubation of OX1R antibody with its homologous immunogenic peptide or omission of the primary antibody. Apoptosis determination was performed in tumor cell lines (AsPC-1, HPAF-II and HPAF-II/hOX1R) and resected xenografts, treated or not with orexin-A. Three μm cell sections were immunolabelled for activated caspase-3 after antigen retrieval (ABGENT; cleaved caspase 3; polyclonal rabbit; 1/100) using a detection kit (Bond Polymer Refine detection; DS9800; Leica Microsystems). Substitution of the primary antibody with PBS was used as a negative control. External positive controls consisted of normal lymph nodes. Cleaved caspase-3 immunostaining was determined by calculating the percentage of tumor cells stained in 10 fields of xenografted tumor cells, each field comprising 500 tumor cells.

“orexin-A: 33 amino acid hypothalamic neuropeptide, OX1R agonist, SEQ ID NO:2; peptide from GL Biochemicals” was tested, and the “decrease in tumor volume as compared to untreated mice” value (1 μmol/kg daily i.p. beginning the day cells were xenografted) was 48.8%, the “volume of established tumors” value (1 μmol/kg daily, started 14 days after cell inoculation) was “rapidly and strongly reduced” and the “weight of tumors, treatment from day 0 versus from day 14” value (1 μmol/kg daily, tumors resected after sacrifice) was “No differences”. The “tumoral cell death (Hemalum Eosin Safran staining)” value (1 μmoles/Kg orexin-A daily i.p.) was “induced tumoral cell death”, the “decrease of tumor volume” value (0.01 moles orexin-A/kg (so in the source)) was 34.4% and the “decrease of tumor volume” value (0.1 moles orexin-A/kg (so in the source)) was 30.6%. For the same substance, the “decrease of tumor volume” value (1 moles orexin-A/kg (so in the source)) was 46.7%, the “decrease of tumor volume” value (10 moles orexin-A/kg (so in the source)) was 52.8% and the “decline of tumor progression” value (Example 1, Orexin-A injection) was 49%. For the same substance, the “activated caspase-3 immunostaining in xenografted AsPC-1 tumors” value was “intense staining” and the “activated caspase-3 immunostaining in xenografted AsPC-1 tumors” value (listed as Orexin-A) was “strong immunostaining; also recorded: Induction of apoptosis was observed”.
